Results as given in patent US8106233B2, “Antioxidant compounds” (Merck Patent GmbH, priority 2005, dated 2012).

Experiments:
[1] = 2,2-diphenyl-1-picrylhydrazyl (DPPH) assay; settings: DPPH in ethanol, 515 nm, 25° C.
Method: The unpaired electron results in a strong absorption band at 515 nm, and the solution has a dark-violet colour. In the presence of a free-radical scavenger, the electron is paired, the absorption disappears, and the decoloration proceeds stoichiometrically taking into account the electrons taken up. The absorbance is measured in a photometer. The anti-free-radical property of the substance to be tested is determined by measuring the concentration at which 50% of the 2,2-diphenyl-1-picrylhydrazyl employed has reacted with the free-radical scavenger. This concentration is expressed as EC50, a value which should be regarded as a property of the substance under the given measurement conditions. The substance investigated is compared with a standard (for example tocopherol). The EC50 value here is a measure of the capacity of the respective compound to scavenge free radicals. The lower the EC50 value, the higher the capacity to scavenge free radicals. […] A further important aspect for the action of the antioxidants is the time in which this EC50 value is achieved. This time, measured in minutes, gives the TEC50 value, which allows a conclusion to be drawn on the rate at which these antioxidants scavenge free radicals. […] The unpaired electron results in a strong absorption band at 515 nm, and the solution has a dark-violet colour. In the presence of a free-radical scavenger, the electron is paired, the absorption disappears, and the decoloration proceeds stoichiometrically taking into account the electrons taken up. The absorbance is measured in a photometer. The anti-free-radical property of the substance to be tested is determined by measuring the concentration at which 50% of the 2,2-diphenyl-1-picrylhydrazyl employed have reacted with the free-radical scavenger. This concentration is expressed as EC50, a value which should be regarded as a substance property under the given measurement conditions. The substance investigated is compared with a standard (for example tocopherol). The EC50 value here is a measure of the capacity of the respective compound to scavenge free radicals. The lower the EC50 value, the higher the capacity to scavenge free radicals. […] Various concentrations of the compound to be tested are added to aliquots of this solution. The absorbance is measured in each case at 515 nm, 25° C. and 1 cm. […] The lower this value, the higher the corresponding free-radical-reducing activity. The reaction time needed to achieve this value is indicated in the value TEC50 (in minutes).

[2] = Oxidation in UV light in the presence of further antioxidants: beta-carotene emulsions on irradiation; type: physicochemical; settings: emulsion with 0.5% by weight beta-carotene and 4% by weight compound vs emulsion without compound, UV irradiation for 90 min, n=4
[3] = Oxidation in UV light: change in the UV spectrum on irradiation; type: physicochemical; settings: xenon lamp
Method: The curves stand for the unirradiated substance (exposed to 0 kJ/m^2), after irradiation for 15 min (exposure to 86 kJ/m^2), after irradiation for 65 min (exposure to 373 kJ/m^2), after irradiation for 235 min (exposure to 1349 kJ/m^2) and after irradiation for 405 min (exposure to 2325 kJ/m^2).

| Structure (SMILES) | Stability TEC50 (reaction time needed to achieve EC50) [1] [min] | Effect on beta-carotene degradation (absorption at Emax 440-480 nm) in emulsion [2] | Emax of the UV-A absorption formed on irradiation ([3]; after UV irradiation, 290-400 nm) | Change in UV absorption in the UV-A region on irradiation ([3]; after irradiation for 65 min (373 kJ/m^2), 95.69 W/m^2 in the range 290-400 nm, increases further on longer irradiation) |
| --- | --- | --- | --- | --- |
| Cc1c(C)c2c(c(C)c1O)CC[C@@](C)(CCC[C@H](C)CCC[C@H](C)CCCC(C)C)O2 [alpha-Tocopherol] | 30 | – | – | – |
| CCCCC(CC)COC(=O)C(Cc1cc(OC)c(O)c(OC)c1)C(=O)OCC(CC)CCCC (stereo not drawn) [Hydroxy dimethoxybenzyl malonate, di-2-ethylhexyl 4-hydroxy-3,5-dimethoxy-benzylmalonate] | 600 | stabilises the beta-carotene | 320-340 nm | significantly increased UV absorption |
| CC(=O)Oc1c(C)c(C)c2c(c1C)CCC(C)(CCC[C@H](C)CCC[C@H](C)CCCC(C)C)O2 (stereo partly drawn) [alpha-Tocopheryl acetate] | 600 | – | – | – |
| CCCCC(CC)COC(=O)C(=Cc1cc(OC)c(O)c(OC)c1)C(=O)OCC(CC)CCCC (stereo not drawn) [Hydroxy dimethoxybenzylidene malonate, Di-2-ethylhexyl (4-hydroxy-3,5-dimethoxybenzylidene)malonate] | 1200 | – | – | – |
| O=C1O[C@H]([C@@H](O)CO)C(O)=C1O [Ascorbic acid] | <5 | – | – | – |
| O=C1OC(C(O)CO)C(OP(=O)(O)O)=C1O (stereo not drawn) [Ascorbyl (2-O) phosphate] | 1200 | – | – | – |
